The target of the test is Receptor-type tyrosine-protein phosphatase kappa (Homo sapiens) (UniProt Q15262). Description: inhibitors of receptor tyrosine phosphatase kappa – biochemical, recombinant human enzyme, DiFMUP fluorescence (AID 404). Particulars: recombinant PTPRK, at 50 µM, enzyme 34 ng/mL, 25 °C, DTT 5 mM, hits give high values.
Receptor-type tyrosine-protein phosphatase kappa (Homo sapiens), sequence (Q15262 whole entry, looked up): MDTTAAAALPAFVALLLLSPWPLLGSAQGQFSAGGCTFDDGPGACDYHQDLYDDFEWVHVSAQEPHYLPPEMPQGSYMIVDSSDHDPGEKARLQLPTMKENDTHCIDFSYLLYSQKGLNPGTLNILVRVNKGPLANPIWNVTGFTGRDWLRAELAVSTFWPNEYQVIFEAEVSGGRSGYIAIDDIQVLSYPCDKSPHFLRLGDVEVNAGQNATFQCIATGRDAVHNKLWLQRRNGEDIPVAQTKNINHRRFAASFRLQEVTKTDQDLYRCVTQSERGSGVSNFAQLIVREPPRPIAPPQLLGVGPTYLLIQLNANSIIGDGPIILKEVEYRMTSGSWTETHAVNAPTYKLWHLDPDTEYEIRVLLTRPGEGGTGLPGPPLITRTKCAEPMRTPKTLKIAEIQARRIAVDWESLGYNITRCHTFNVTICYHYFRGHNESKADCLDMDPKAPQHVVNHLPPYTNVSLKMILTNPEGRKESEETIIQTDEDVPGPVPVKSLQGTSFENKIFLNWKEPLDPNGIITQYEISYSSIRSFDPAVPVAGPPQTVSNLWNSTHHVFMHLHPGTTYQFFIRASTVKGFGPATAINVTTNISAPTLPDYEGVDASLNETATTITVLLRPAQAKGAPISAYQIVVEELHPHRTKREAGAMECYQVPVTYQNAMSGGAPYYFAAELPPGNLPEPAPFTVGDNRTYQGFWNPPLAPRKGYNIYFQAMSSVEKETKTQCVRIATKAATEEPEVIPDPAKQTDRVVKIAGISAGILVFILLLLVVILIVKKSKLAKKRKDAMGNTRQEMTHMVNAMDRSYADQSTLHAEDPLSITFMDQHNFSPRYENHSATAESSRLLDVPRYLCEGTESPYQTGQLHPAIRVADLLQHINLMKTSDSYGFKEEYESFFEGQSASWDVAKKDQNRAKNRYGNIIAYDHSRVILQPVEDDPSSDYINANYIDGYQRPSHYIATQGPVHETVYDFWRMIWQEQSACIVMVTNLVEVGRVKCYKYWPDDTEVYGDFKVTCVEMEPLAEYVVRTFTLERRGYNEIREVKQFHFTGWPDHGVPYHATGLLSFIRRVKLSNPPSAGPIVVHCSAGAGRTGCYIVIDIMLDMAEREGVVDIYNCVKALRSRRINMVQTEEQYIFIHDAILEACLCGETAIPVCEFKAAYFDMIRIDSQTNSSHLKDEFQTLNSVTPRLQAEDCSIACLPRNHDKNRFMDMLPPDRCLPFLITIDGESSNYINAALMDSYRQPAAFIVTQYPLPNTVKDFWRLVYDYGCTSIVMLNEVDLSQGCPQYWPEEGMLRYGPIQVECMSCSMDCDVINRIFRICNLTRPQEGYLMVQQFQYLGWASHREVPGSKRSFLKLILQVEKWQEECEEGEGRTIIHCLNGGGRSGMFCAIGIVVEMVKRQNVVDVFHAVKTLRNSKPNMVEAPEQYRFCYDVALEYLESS
With `CC(C)CCN1C(=O)c2ccc(C(=O)Nc3ccc(O)cc3C(=O)O)cc2C1=O`, the inhibition was 14%.

As for `COc1cccc(-c2nc3cc(N=Cc4cc(C(=O)O)ccc4O)ccc3o2)c1`, the inhibition was 29%.

In the case of `O=C([O-])c1ccccn1.OO.OO.[K+].[K+].[O]=[V]`, the inhibition was 98%.

Consider `Cc1cc(C)c(N2C(=O)c3ccc(C(=O)Nc4ccc(O)cc4C(=O)O)cc3C2=O)c(C)c1`, for which the inhibition was 38%.

With `O=C(O)c1ccc(O)c(C=Nc2ccc3oc(-c4cccc(Cl)c4Cl)nc3c2)c1`, the inhibition was 45%.

Consider `CN(N=O)c1ccc(O)c(O)c1`, for which the inhibition is 96%.

For `CC(C)CN1C(=O)c2ccc(C(=O)Nc3ccc(O)cc3C(=O)O)cc2C1=O`, the inhibition was 41%.

With `Cc1ccc(N=Cc2cc(C(=O)O)ccc2O)c(O)c1`, the inhibition was 20%.

Turning to `CC1=C(C)OC(Nc2ccc(Br)cc2C(=O)O)C=C1` (configuration not stated), the inhibition was 15%.

Regarding `O=C(O)c1ccc(O)cn1.OO.[O]=[V]`, the inhibition is 94%.

In the case of `O=C(O)c1ccc(O)c(C=Nc2cccc(-c3nc4ccccc4o3)c2)c1`, the inhibition is 31%.

As to `OO.OO.[K+].[O]=[V].c1ccc(-c2ccccn2)nc1`, the inhibition was 93%.

For the molecule `O=C(Nc1ccc(O)cc1C(=O)O)c1ccc2c(c1)C(=O)N(CC1CCCO1)C2=O` (configuration not stated), the inhibition is 12%.

Regarding `O=C(Nc1ccc(O)cc1C(=O)O)c1ccc(NC(=O)c2ccco2)cc1`, the inhibition is 18%.

As for `F`, the inhibition is 14%.

As to `Cc1c(Cl)c(C)c([N+](=O)[O-])c(O)c1C=Nc1ccc(O)cc1C(=O)O`, the inhibition was 78%.

On to `CC(C)(c1ccc(NS(=O)(=O)C(F)(F)F)cc1)c1ccc(C(C)(C)c2ccc(NS(=O)(=O)C(F)(F)F)cc2)cc1`, for which the inhibition is 14%.

Turning to `[NH-]CO.[NH-]CO.[NH-]CO.[NH-]CO.[O]=[V][O][V]=[O]`, the inhibition is 89%.

Turning to `Oc1c(Cl)c(Cl)c(O)c2nsnc12`, the inhibition was 12%.

Take `NC1=NC(=O)/C(=C/C=C/c2ccc([N+](=O)[O-])o2)S1`: the inhibition was 24%.

With `COc1ccc(-c2nc3cc(N=Cc4cc(C(=O)O)ccc4O)ccc3o2)cc1`, the inhibition was 72%.

With `O=C(O)c1ccc([O-])cn1.OO.OO.[K+].[K+].[O]=[V]`, the inhibition was 100%.

With `O=C1NC(=S)S/C1=C\C=C\c1ccc([N+](=O)[O-])o1`, the inhibition is 78%.

Regarding `CC(=O)c1ccc2c(c1)C1C=CCC1C(C(=O)O)N2` (configuration not stated), the inhibition was 40%.

Take `O=C1NC(=S)NC(=O)C1=C/C=C/c1ccco1`: the inhibition is 22%.

As for `OO.OO.[K+].[O]=[V].c1cnc2c(c1)ccc1cccnc12`, the inhibition is 96%.

As for `CC(C)(C)NC(=O)CCN(/N=C/c1cc(C(=O)O)ccc1O)C1=NS(=O)(=O)c2ccccc21`, the inhibition was 30%.

In the case of `Cc1ccc2nc(-c3cc(N=Cc4cc(C(=O)O)ccc4O)ccc3O)[nH]c2c1`, the inhibition was 34%.

Consider `O=C(COc1ccc([N+](=O)[O-])cc1)Nc1ccc(O)cc1C(=O)O`, for which the inhibition was 20%.

For `CC1(C)OC(=O)C(=Cc2ccc(Br)o2)C(=O)O1`, the inhibition is 11%.

Regarding `O=C(O)c1ccc(O)c(/C=N/N(CCO)C2=NS(=O)(=O)c3ccccc32)c1`, the inhibition is 32%.

For `O=C(O)c1ccc(O)c(C=Nc2ccc3oc(-c4cc(Cl)ccc4Cl)nc3c2)c1`, the inhibition was 15%.

As a reminder, the inhibition is the percentage by which the read-out fell short of the control.
